# How the values were obtained:
# [1] = Oral bioavailability in rhesus monkey at 2 mg/kg; type: ADME, organism-based, Macaca mulatta; conditions: in vivo
# [2] = Stability in dog plasma assessed as parent compound remaining at 24 hrs by LC-MS analysis; type: ADME, cell-free, Canis lupus familiaris; conditions: read-out: Stability
# [3] = target: Beta-3 adrenergic receptor (Canis lupus familiaris, UniProt O02662); assay: Agonist activity at dog beta3 adrenergic receptor expressed in CHO cells assessed as accumulation of cAMP after 30 mins by TR-FRET assay; type: functional, cell-based
# [4] = target: Sodium-dependent serotonin transporter (Homo sapiens, UniProt P31645); assay: Inhibition of human SERT expressed in HEK293 cells preincubated for 30 mins followed by fluorescent substrate addition measured after 30 mins by plate reader analysis; type: cell-based
# Sodium-dependent serotonin transporter, sequence (P31645 whole entry): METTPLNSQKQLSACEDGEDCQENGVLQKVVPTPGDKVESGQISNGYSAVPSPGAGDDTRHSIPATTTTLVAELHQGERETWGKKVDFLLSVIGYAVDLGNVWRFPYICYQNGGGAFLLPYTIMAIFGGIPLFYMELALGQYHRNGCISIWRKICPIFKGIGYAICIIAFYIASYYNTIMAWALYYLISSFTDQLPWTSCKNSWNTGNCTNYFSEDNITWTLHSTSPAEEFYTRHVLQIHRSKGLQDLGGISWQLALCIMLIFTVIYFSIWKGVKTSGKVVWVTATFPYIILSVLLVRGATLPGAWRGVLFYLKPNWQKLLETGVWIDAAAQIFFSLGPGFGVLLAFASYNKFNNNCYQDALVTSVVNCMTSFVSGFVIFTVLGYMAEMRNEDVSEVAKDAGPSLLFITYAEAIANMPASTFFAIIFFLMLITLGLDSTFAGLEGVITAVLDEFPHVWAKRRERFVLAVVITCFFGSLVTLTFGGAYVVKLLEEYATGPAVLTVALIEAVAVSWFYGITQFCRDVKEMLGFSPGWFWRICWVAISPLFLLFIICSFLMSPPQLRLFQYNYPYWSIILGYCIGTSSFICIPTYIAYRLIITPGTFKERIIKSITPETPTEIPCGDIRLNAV
# [5] = test system: Rattus norvegicus; assay: Unbound clearance in rat at 1 mg/kg, iv or 2 mg/kg, po; type: ADME, organism-based; conditions: in vivo
# [6] = target: T1, Beta-3 adrenergic receptor (Homo sapiens, UniProt P13945); assay: Agonist activity at human adrenergic beta3 receptor expressed in CHO cells assessed as accumulation of cAMP after 30 mins by TR-FRET assay in presence of 40% serum relative to (R)-(-)-isoproterenol; type: functional, cell-based
# Target sequence in this assay (P13945 whole entry, looked up): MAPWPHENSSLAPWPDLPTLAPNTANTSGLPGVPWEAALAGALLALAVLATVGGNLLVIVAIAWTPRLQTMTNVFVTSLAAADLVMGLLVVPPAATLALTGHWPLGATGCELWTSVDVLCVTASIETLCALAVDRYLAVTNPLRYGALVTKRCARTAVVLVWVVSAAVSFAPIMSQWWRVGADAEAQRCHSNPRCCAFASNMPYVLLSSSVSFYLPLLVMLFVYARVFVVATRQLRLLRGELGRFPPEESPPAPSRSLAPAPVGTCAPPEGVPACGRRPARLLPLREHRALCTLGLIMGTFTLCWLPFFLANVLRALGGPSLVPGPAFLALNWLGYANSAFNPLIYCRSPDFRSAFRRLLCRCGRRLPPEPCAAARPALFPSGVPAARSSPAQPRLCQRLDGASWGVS
# [7] = Stability in rhesus monkey plasma assessed as parent compound remaining at 24 hrs by LC-MS analysis; type: ADME, cell-free, Macaca mulatta; conditions: read-out: Stability
# [8] = target: Beta-3 adrenergic receptor (Macaca mulatta) (UniProt Q28524); assay: Agonist activity at rhesus monkey beta3 adrenergic receptor expressed in CHO cells assessed as accumulation of cAMP after 30 mins by TR-FRET assay in presence of 40% serum relative to (R)-(-)-isoproterenol; type: functional, cell-based
# Beta-3 adrenergic receptor (Macaca mulatta), sequence (Q28524 whole entry): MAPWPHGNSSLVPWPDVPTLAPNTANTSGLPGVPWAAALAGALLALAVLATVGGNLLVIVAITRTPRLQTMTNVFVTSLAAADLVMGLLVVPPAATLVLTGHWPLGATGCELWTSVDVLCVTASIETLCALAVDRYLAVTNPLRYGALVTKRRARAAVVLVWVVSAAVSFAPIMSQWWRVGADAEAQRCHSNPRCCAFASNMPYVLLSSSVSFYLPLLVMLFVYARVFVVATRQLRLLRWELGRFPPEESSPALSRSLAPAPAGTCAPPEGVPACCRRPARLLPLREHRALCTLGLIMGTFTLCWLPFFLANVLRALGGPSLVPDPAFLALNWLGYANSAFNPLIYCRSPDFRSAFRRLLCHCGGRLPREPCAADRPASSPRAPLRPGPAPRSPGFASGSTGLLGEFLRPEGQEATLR
# [9] = test system: Canis familiaris; assay: Unbound clearance in dog at 0.5 mg/kg, iv or 2 mg/kg, po; type: ADME, organism-based, Canis lupus familiaris; conditions: in vivo
# [10] = target: T2, Beta-3 adrenergic receptor (Rattus norvegicus, UniProt P26255); assay: Agonist activity at rat beta3 adrenergic receptor expressed in CHO cells assessed as accumulation of cAMP after 30 mins by TR-FRET assay in presence of 40% serum; type: functional, cell-based
# T2 sequence (P26255 whole entry): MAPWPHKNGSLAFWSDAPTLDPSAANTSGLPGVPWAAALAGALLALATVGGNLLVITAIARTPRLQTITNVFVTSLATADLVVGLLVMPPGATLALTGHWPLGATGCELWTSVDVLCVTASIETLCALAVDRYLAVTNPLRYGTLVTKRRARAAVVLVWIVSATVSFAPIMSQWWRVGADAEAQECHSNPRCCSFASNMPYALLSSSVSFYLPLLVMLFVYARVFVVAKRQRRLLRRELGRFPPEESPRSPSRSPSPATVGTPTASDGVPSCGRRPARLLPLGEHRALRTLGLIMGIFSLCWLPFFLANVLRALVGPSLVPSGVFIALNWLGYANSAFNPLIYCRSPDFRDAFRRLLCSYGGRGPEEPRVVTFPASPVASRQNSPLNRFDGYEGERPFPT
# [11] = target: T1, Beta-3 adrenergic receptor; assay: Agonist activity at human adrenergic beta3 receptor expressed in CHO cells assessed as accumulation of cAMP after 30 mins by TR-FRET assay in presence of 40% serum; type: functional, cell-based
# Target sequence in this assay (P13945 whole entry): as the sequence (P13945 whole entry, looked up) above
# [12] = Induction of phospholidosis in human HepG2 cells incubated overnight by […] in presence of fluorescent labeled phospholipid probe NBD-PE; type: cell-based; conditions: read-out: A50
# [13] = Stability in human plasma assessed as parent compound remaining at 24 hrs by LC-MS analysis; type: ADME, cell-free; conditions: read-out: Stability
# [14] = Fraction unbound in dog at 0.5 mg/kg, iv or 2 mg/kg, po; type: ADME, organism-based, Canis lupus familiaris; conditions: in vivo
# [15] = test system: Rattus norvegicus; assay: Increase in detrusor muscle relaxation in iv infused Sprague-Dawley rat acetic acid-induced bladder hyperreflexia model assessed as decrease in micturition pressure measured over 30 to 45 mins; type: functional, organism-based
# [16] = Plasma clearance in dog at 0.5 mg/kg, iv or 2 mg/kg, po; type: ADME, organism-based, Canis lupus familiaris
# [17] = Plasma clearance in rat at 1 mg/kg, iv or 2 mg/kg, po; type: ADME, organism-based
# [18] = test system: Rattus norvegicus; assay: Dose normalized total AUC in rat at 2 mg/kg, po; type: ADME, organism-based; conditions: in vivo
# [19] = target: Beta-3 adrenergic receptor (Rattus norvegicus) (UniProt P26255); assay: Agonist activity at rat beta3 adrenergic receptor expressed in CHO cells assessed as accumulation of cAMP after 30 mins by TR-FRET assay in presence of 40% serum relative to (R)-(-)-isoproterenol; type: functional, cell-based
# Beta-3 adrenergic receptor (Rattus norvegicus), sequence (P26255 whole entry): as the sequence (P26255 whole entry) above
# [20] = target: T2, Beta-3 adrenergic receptor; assay: Agonist activity at rat beta3 adrenergic receptor expressed in CHO cells assessed as accumulation of cAMP after 30 mins by TR-FRET assay; type: functional, cell-based
# [21] = test system: Rhesus monkey; assay: Dose normalized total AUC in rhesus monkey at 2 mg/kg, po; type: ADME, organism-based, Macaca mulatta; conditions: in vivo
# [22] = Fraction unbound in rat at 1 mg/kg, iv or 2 mg/kg, po; type: ADME, organism-based; conditions: in vivo
# [23] = Inhibition of rat choline transporter
# [24] = test system: Rhesus monkey; assay: Unbound clearance in rhesus monkey at 0.5 mg/kg, iv or 2 mg/kg, po; type: ADME, organism-based, Macaca mulatta; conditions: in vivo
# [25] = test system: Canis familiaris; assay: Dose normalized fAUC in dog at 2 mg/kg, po; type: ADME, organism-based, Canis lupus familiaris; conditions: in vivo
# [26] = target: T3, Beta-3 adrenergic receptor (Macaca mulatta, UniProt Q28524); assay: Agonist activity at rhesus monkey beta3 adrenergic receptor expressed in CHO cells assessed as accumulation of cAMP after 30 mins by TR-FRET assay; type: functional, cell-based
# T3 sequence (Q28524 whole entry): as the sequence (Q28524 whole entry) above
# [27] = target: Beta-2 adrenergic receptor (Homo sapiens, UniProt P07550)
# Beta-2 adrenergic receptor, sequence (P07550 whole entry): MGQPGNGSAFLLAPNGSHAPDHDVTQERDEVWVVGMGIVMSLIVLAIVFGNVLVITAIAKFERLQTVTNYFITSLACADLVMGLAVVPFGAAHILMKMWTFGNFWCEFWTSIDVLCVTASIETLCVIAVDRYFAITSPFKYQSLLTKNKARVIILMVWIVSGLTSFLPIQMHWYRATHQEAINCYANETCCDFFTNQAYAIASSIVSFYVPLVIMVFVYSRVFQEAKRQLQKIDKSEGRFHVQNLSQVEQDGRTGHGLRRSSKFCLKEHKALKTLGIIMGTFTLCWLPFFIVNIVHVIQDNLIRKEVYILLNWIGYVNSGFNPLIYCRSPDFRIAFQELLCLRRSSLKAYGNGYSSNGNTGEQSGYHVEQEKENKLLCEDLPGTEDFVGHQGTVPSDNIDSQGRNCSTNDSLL
# Description: Displacement of [125]I-cyanopindolol from human recombinant beta2 adrenergic receptor after 1 hr by scintillation counting method
# [28] = test system: Rattus norvegicus; assay: Dose normalized fAUC in rat at 2 mg/kg, po; type: ADME, organism-based; conditions: in vivo
# [29] = test system: Canis familiaris; assay: Dose normalized total AUC in dog at 2 mg/kg, po; type: ADME, organism-based, Canis lupus familiaris; conditions: in vivo
# [30] = test system: Rattus norvegicus; assay: Increase in detrusor muscle relaxation in iv infused Sprague-Dawley rat acetic acid-induced bladder hyperreflexia model assessed as increase in functional bladder capacity measured over 30 to 45 mins; type: organism-based
# [31] = target: Beta-3 adrenergic receptor (Macaca mulatta) (UniProt Q28524); assay: Agonist activity at rhesus monkey beta3 adrenergic receptor expressed in CHO cells assessed as accumulation of cAMP after 30 mins by TR-FRET assay relative to (R)-(-)-isoproterenol; type: functional, cell-based
# [32] = target: T1, Beta-3 adrenergic receptor; assay: Agonist activity at human beta3 adrenergic receptor expressed in CHO cells assessed as accumulation of cAMP after 30 mins by TR-FRET assay; type: functional, cell-based
# Target sequence in this assay (P13945 whole entry): as the sequence (P13945 whole entry, looked up) above
# [33] = target: T3, Beta-3 adrenergic receptor; assay: Agonist activity at rhesus monkey beta3 adrenergic receptor expressed in CHO cells assessed as accumulation of cAMP after 30 mins by TR-FRET assay in presence of 40% serum; type: functional, cell-based
# [34] = Half life in rhesus monkey at 0.5 mg/kg, iv or 2 mg/kg, po; type: ADME, organism-based, Macaca mulatta; conditions: in vivo
# [35] = target: Voltage-gated inwardly rectifying potassium channel KCNH2 (Homo sapiens, UniProt Q12809); assay: Binding affinity to human ERG channel
# [36] = Intrinsic clearance in rat liver microsomes; type: ADME; conditions: read-out: CLH
# [37] = Intrinsic clearance in dog liver microsomes; type: ADME, Canis lupus familiaris; conditions: read-out: CLH
# [38] = Intrinsic clearance in human liver microsomes; type: ADME; conditions: read-out: CLH
# [39] = Oral bioavailability in dog at 2 mg/kg; type: ADME, organism-based, Canis lupus familiaris; conditions: in vivo
# [40] = Distribution coefficient, logD of the compound at pH 7.4; type: physicochemical; conditions: octanol/water
# [41] = Oral bioavailability in rat at 2 mg/kg; type: ADME, organism-based; conditions: in vivo
# [42] = target: T1, Beta-3 adrenergic receptor; assay: Agonist activity at human beta3 adrenergic receptor expressed in CHO cells assessed as accumulation of cAMP after 30 mins by TR-FRET assay relative to (R)-(-)-isoproterenol; type: functional, cell-based
# Target sequence in this assay (P13945 whole entry, looked up): as above
# [43] = target: Beta-1 adrenergic receptor (Homo sapiens, UniProt P08588)
# Beta-1 adrenergic receptor, sequence (P08588 whole entry): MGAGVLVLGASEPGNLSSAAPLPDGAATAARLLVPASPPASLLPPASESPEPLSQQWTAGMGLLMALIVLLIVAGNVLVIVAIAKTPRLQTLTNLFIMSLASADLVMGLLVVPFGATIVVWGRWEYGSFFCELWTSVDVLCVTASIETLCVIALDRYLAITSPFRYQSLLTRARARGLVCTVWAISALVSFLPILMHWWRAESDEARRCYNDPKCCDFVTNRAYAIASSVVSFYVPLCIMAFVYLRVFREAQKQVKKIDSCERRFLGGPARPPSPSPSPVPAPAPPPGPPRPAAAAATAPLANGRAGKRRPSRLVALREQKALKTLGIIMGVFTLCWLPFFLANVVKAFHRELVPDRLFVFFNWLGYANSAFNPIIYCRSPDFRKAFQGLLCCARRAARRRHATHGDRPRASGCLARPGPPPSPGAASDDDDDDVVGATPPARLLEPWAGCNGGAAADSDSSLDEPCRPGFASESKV
# Description: Displacement of [125]I-cyanopindolol from recombinant human beta1 adrenergic receptor after 1 hr by scintillation counting method
# [44] = target: Voltage-dependent L-type calcium channel subunit alpha-1C (Homo sapiens, UniProt Q13936); assay: Displacement of [3H]-diltiazem from human Cav1.2 channel
# [45] = Half life in rat at 1 mg/kg, iv or 2 mg/kg, po; type: ADME, organism-based; conditions: in vivo
# [46] = Stability in rat plasma assessed as parent compound remaining at 24 hrs by LC-MS analysis; type: ADME, cell-free; conditions: read-out: Stability
# [47] = test system: Rhesus monkey; assay: Dose normalized fAUC in rhesus monkey at 2 mg/kg, po; type: ADME, organism-based, Macaca mulatta; conditions: in vivo
# [48] = Intrinsic clearance in rhesus monkey liver microsomes; type: ADME, Macaca mulatta; conditions: read-out: CLH
# [49] = Fraction unbound in rhesus monkey at 0.5 mg/kg, iv or 2 mg/kg, po; type: ADME, organism-based, Macaca mulatta; conditions: in vivo
# [50] = target: Beta-3 adrenergic receptor (Rattus norvegicus) (UniProt P26255); assay: Agonist activity at rat beta3 adrenergic receptor expressed in CHO cells assessed as accumulation of cAMP after 30 mins by TR-FRET assay relative to (R)-(-)-isoproterenol; type: functional, cell-based
# [51] = Half life in dog at 0.5 mg/kg, iv or 2 mg/kg, po; type: ADME, organism-based, Canis lupus familiaris; conditions: in vivo
# [52] = target: Sodium channel protein type 2 subunit alpha (Homo sapiens, UniProt Q99250); assay: Inhibition of human Nav1.2 channel expressed in Xenopus oocytes by two-intracellular microelectrode voltage clamp method; type: cell-based
# Sodium channel protein type 2 subunit alpha, sequence (Q99250 whole entry, looked up): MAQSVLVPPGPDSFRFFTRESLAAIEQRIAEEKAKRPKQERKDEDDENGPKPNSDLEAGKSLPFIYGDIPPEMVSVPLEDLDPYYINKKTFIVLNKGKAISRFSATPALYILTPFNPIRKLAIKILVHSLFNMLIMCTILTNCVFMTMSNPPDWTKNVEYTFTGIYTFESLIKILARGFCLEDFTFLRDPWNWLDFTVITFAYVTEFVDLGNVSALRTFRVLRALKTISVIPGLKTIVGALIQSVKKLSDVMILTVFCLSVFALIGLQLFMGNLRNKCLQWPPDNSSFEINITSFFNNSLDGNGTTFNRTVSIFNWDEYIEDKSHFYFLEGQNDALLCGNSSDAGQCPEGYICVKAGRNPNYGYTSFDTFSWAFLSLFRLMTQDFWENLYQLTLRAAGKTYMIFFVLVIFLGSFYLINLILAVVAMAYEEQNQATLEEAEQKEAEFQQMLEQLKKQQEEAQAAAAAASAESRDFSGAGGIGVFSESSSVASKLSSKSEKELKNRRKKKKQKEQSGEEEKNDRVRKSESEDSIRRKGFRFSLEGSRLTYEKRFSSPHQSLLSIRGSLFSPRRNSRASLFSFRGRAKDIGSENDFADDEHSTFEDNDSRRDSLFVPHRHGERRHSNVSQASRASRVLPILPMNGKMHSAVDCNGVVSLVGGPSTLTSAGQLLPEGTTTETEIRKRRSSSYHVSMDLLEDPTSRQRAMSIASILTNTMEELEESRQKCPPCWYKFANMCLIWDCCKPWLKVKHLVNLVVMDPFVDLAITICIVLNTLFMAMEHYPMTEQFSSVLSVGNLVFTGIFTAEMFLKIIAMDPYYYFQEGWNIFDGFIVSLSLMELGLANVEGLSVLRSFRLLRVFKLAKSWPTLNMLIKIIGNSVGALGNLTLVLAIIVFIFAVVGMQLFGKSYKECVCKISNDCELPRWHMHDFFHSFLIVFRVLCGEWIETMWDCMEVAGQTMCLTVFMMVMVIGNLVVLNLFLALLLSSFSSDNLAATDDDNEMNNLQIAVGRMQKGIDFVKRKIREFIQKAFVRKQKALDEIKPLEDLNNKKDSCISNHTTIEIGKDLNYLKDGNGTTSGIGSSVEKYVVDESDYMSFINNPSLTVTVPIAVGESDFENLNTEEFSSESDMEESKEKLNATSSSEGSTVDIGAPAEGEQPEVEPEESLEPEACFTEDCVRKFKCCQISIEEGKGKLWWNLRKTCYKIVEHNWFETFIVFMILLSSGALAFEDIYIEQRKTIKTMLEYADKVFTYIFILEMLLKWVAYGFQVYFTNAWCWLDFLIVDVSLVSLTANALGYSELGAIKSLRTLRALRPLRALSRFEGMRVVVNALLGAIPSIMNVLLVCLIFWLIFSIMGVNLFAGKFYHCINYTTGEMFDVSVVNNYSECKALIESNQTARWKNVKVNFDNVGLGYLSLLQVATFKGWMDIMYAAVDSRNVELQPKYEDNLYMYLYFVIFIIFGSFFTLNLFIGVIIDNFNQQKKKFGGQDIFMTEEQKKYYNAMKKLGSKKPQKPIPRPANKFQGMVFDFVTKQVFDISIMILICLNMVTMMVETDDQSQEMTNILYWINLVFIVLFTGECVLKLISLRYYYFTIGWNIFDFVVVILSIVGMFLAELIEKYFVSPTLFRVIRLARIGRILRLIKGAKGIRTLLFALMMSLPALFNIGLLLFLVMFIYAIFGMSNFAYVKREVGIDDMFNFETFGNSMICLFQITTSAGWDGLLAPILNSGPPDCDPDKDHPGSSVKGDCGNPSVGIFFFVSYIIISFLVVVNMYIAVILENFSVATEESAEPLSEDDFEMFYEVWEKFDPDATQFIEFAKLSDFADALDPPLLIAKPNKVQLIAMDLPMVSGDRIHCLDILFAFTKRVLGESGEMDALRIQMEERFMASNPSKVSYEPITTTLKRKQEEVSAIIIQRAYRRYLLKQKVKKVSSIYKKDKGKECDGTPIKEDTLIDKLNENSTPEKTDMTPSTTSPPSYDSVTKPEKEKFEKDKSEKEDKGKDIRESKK
# [53] = Plasma clearance in rhesus monkey at 0.5 mg/kg, iv or 2 mg/kg, po; type: ADME, organism-based, Macaca mulatta
# [54] = target: Sodium-dependent dopamine transporter (Homo sapiens, UniProt Q01959); assay: Inhibition of human dopamine transporter
smiles,measurement,setting,value
C[C@@H](C(=O)Nc1ccc(C[C@@H]2CC[C@H]([C@H](O)c3ccccc3)N2)cc1)n1ncccc1=O,bioavailability,[1],29%
same,remaining at 24 h,[2],77%
same,EC50,[3],0.039 µM
same,IC50,[4],> 10 µM
same,CL free,[5],180 mL/min/kg
same,max activation,[6],98%
same,remaining at 24 h,[7],99%
same,max activation,[8],91%
same,CL free,[9],59 mL/min/kg
same,EC50,[10],0.245 µM
same,EC50,[11],0.0021 µM
same,AC50,[12],42 µM
same,remaining at 24 h,[13],100%
same,fraction unbound,[14],0.39
same,Activity,[15],Dose-dependent effect
same,clearance,[16],23 mL/min/kg
same,clearance,[17],36 mL/min/kg
same,AUC/dose,[18],100 nM·h/mg/kg
same,max activation,[19],83%
same,EC50,[20],0.531 µM
same,AUC/dose,[21],300 nM·h/mg/kg
same,fraction unbound,[22],0.2
same,IC50,[23],2.3 µM
same,CL free,[24],46 mL/min/kg
same,fAUC/dose,[25],113 nM·h/mg/kg
same,EC50,[26],0.0025 µM
same,IC50,[27],> 20 µM
same,fAUC/dose,[28],20 nM·h/mg/kg
same,AUC/dose,[29],290 nM·h/mg/kg
same,Activity,[30],Dose-dependent effect
same,max activation,[31],91%
same,EC50,[32],0.0027 µM
same,EC50,[33],0.012 µM
same,half-life,[34],9 h
same,IC50,[35],> 30 µM
same,CLint scaled,[36],31 mL/min/kg
same,CLint scaled,[37],34 mL/min/kg
same,CLint scaled,[38],10 mL/min/kg
same,bioavailability,[39],91%
same,logD,[40],1.3
same,bioavailability,[41],10%
same,max activation,[42],92%
same,IC50,[43],> 20 µM
same,IC50,[44],> 30 µM
same,half-life,[45],2 h
same,remaining at 24 h,[46],95%
same,fAUC/dose,[47],213 nM·h/mg/kg
same,CLint scaled,[48],17 mL/min/kg
same,fraction unbound,[49],0.71
same,max activation,[50],85%
same,half-life,[51],9 h
same,IC50,[52],> 30 µM
same,clearance,[53],33 mL/min/kg
O=C(Nc1ccc(C[C@@H]2CC[C@H]([C@H](O)c3ccccc3)N2)cc1)[C@@H]1CCc2cccc(=O)n21,remaining at 24 h,[2],92%
same,IC50,[4],7.1 µM
same,remaining at 24 h,[7],72%
same,AC50,[12],33 µM
same,remaining at 24 h,[13],100%
same,clearance,[16],26 mL/min/kg
same,clearance,[17],77 mL/min/kg
same,AUC/dose,[18],110 nM·h/mg/kg
same,IC50,[27],> 20 µM
same,AUC/dose,[29],1500 nM·h/mg/kg
same,EC50,[32],0.00062 µM
same,IC50,[54],4.8 µM
same,CLint scaled,[36],29 mL/min/kg
same,CLint scaled,[37],13 mL/min/kg
same,CLint scaled,[38],19 mL/min/kg
same,bioavailability,[39],100%
same,bioavailability,[41],21%
same,max activation,[42],94%
same,IC50,[43],> 20 µM
same,IC50,[44],> 30 µM
same,half-life,[45],3 h
same,remaining at 24 h,[46],92%
same,CLint scaled,[48],137 mL/min/kg
same,half-life,[51],6 h
same,IC50,[52],> 30 µM
